Values quoted from earlier work in US20180271820A1, “METHODS OF TREATING HEART FAILURE” (priority 2015, published 2018).
Structures can show the parent of a compound that is named as a salt.

Legend:
[1] = test system: patients with preserved EF; conditions: GISSI-HF, rosuvastatin or placebo; cited from earlier work
HFPEF patients = conditions: RELAX trial; cited from earlier work
Ehrlich ascites tumor = conditions: mice; cited from earlier work
[2] = test system: patients with symptomatic heart failure and a preserved ejection fraction; conditions: 3,445 patients, TOPCAT trial; cited from earlier work
patients = conditions: 120 mg, 240 mg, daily, BID, and TID; cited from earlier work
[3] = cited from earlier work

Question: With CC(C)c1nc(N(C)S(C)(=O)=O)nc(-c2ccc(F)cc2)c1/C=C/[C@@H](O)C[C@@H](O)CC(=O)O [rosuvastatin] as the compound, how does the “benefit in subgroup of patients with preserved EF” value [1] read?
Answer: no benefit

Question: For CCCc1nn(C)c2c(=O)[nH]c(-c3cc(S(=O)(=O)N4CCN(C)CC4)ccc3OCC)nc12 [sildenafil], which “primary outcome of functional capacity” value (HFPEF patients) is on record?
Answer: did not impact

Question: Which “growth of the Ehrlich ascites tumor” value (Ehrlich ascites tumor) does the source give for O=C(O)/C=C/C(=O)O [Fumaric acid] here?
Answer: inhibits the growth

Question: For CC(=O)S[C@@H]1CC2=CC(=O)CC[C@]2(C)[C@H]2CC[C@@]3(C)[C@@H](CC[C@@]34CCC(=O)O4)[C@H]12 [spironolactone], which “incidence of primary composite outcome of death from cardiovascular causes, cardiac arrest, or hospitalization for heart failure” value [2] is on record?
Answer: did not significantly reduce

Question: Which “side effect profile across dosages” value (patients) does the source give for COC(=O)/C=C/C(=O)OC [DMF, dimethyl fumarate] here?
Answer: similar

Question: And the aqueous solubility [3]?
Answer: poor
